# Laboratory results from publication PMC7179259, “Safety, Tolerability, Pharmacokinetics, and Antimalarial Activity of the Novel Plasmodium Phosphatidylinositol 4-Kinase Inhibitor MMV390048 in Healthy Volunteers” (Antimicrobial Agents and Chemotherapy, 2020).
# Marks after values point to notes of the source that are not given here.
# Tested on: healthy volunteers
# Experiment: First-in-human single-ascending-dose study: safety and tolerability
# Assay type: in vivo
# Settings: for lowest observed neutrophil count: 24 h after 40 mg
# Protocol: The first-in-human study was conducted at the University of Cape Town Clinical Research Centre (Cape Town, South Africa) between 30 April 2014 and 2 February 2015. This was a phase 1, adaptive, single-center, double-blind, randomized, placebo-controlled, ascending-dose study. The study was planned in two parts, with a single ascending dose and then a multiple ascending dose. However, the multiple-ascending-dose part was not executed due to the high variability in pharmacokinetic profiles observed during the single-ascending-dose part (see Results).
# (i) First-in-human study. The study was conducted in five fasted cohorts (5, 20, 40, 80, and 120 mg) and one fed 40-mg cohort. The initial dose of 5 mg was chosen in agreement with guidelines on dose selection for first-in-human clinical studies ([15], [16]) and was based on the no-observed-adverse-event level for the most sensitive species observed in preclinical toxicology studies. Doses administered to subsequent cohorts were determined a priori after consideration of interim human pharmacokinetic and safety data.
# MMV390048 and placebo were each supplied as a powder for suspension packaged in white opaque high-density polyethylene bottles, with a volume capacity of 100 ml when reconstituted with deionized water (Almac Pharma Services, United Kingdom). The powder contained the following excipients: Avicel CL611, disodium edetate, sodium citrate dihydrate, methyl paraben, sucralose, povidone, and orange flavor. The reconstituted formulation consisted of the active ingredient MMV390048 in an aqueous suspension of 5 mg ml^−1.
# All subjects in the fasted cohorts were dosed on day 1 after a fasting period of ≥8 h. Water was prohibited from 2 h predose and then allowed ad libitum from 2 h postdose, and standardized meals were provided from 4 h postdose. In the first two cohorts (5 and 20 mg), a sentinel subcohort (n = 2) was dosed on day 1. The safety review team reviewed safety and pharmacokinetic data of these subjects up to day 3 before dosing the rest of these two cohorts and up to day 19 for all cohorts before dose escalation. […] Selected subjects from the fasted cohorts then received 40 mg in a fed state to evaluate the effect of food on the tolerability and pharmacokinetic profile of MMV390048. […] The predose breakfast was in line with FDA guidelines ([13]) and was composed of approximately 800 to 1,000 calories (cal), with 150, 250, and 500 to 600 cal from protein, carbohydrate, and fat, respectively.
# Safety endpoints were the incidence, severity, and relationship to the investigational product (and inoculum for the IBSM study) of observed and self-reported adverse events (AEs), and changes from baseline in physical examination, vital signs, standard electrocardiograms (ECGs), continuous ECGs (first-in-human study only), and laboratory evaluation (hematology, coagulation parameters, hemolysis panel, clinical chemistry, and urinalysis) findings. […] AE severity was evaluated according to the Common Terminology Criteria for Adverse Events version 4.03 ([18]) and the World Health Organization recommendations for grading acute and subacute toxic effects ([19]).
# [1] = first-in-human study, 5 mg (n = 6)
# [2] = first-in-human study, 20 mg (n = 6)
# [3] = first-in-human study, 40 mg (n = 6)
# [4] = first-in-human study, 40 mg (n = 6), AE was neutropenia
# [5] = first-in-human study, 40 mg FED (n = 6)
# [6] = first-in-human study, 40 mg FED (n = 6), AE was neutropenia
# [7] = first-in-human study, 80 mg (n = 6)
# [8] = first-in-human study, 120 mg (n = 6)
# [9] = first-in-human study, 120 mg (n = 6), SAE was generalized myoclonus
smiles,measurement,setting,value
CS(=O)(=O)c1ccc(-c2cnc(N)c(-c3ccc(C(F)(F)F)nc3)c2)cc1 [MMV390048],serious AE (SAE) reported,"approximately 24 h after 120 mg, subject with undisclosed history of epilepsy",generalized myoclonus
same,No. (%) of subjects with adverse events: All AEs,[1],4 (67)
same,"No. (%) of subjects with adverse events: All AEs, Treatment related",[1],0
same,No. (%) of subjects with adverse events: Grade 2 AEs,[1],0
same,"No. (%) of subjects with adverse events: Grade 2 AEs, Treatment related",[1],0
same,No. (%) of subjects with adverse events: Grade 3 AEs,[1],0
same,No. (%) of subjects with adverse events: SAEs,[1],0
same,No. of adverse events: All AEs,[1],11
same,"No. of adverse events: All AEs, Treatment related",[1],0
same,No. of adverse events: Grade 2 AEs,[1],0
same,"No. of adverse events: Grade 2 AEs, Treatment related",[1],0
same,No. of adverse events: Grade 3 AEs,[1],0
same,No. of adverse events: SAEs,[1],0
same,No. (%) of subjects with adverse events: All AEs,[2],5 (83)
same,"No. (%) of subjects with adverse events: All AEs, Treatment related",[2],3 (50)
same,No. (%) of subjects with adverse events: Grade 2 AEs,[2],4 (67)
same,"No. (%) of subjects with adverse events: Grade 2 AEs, Treatment related",[2],1 (17)
same,No. (%) of subjects with adverse events: Grade 3 AEs,[2],0
same,No. (%) of subjects with adverse events: SAEs,[2],0
same,No. of adverse events: All AEs,[2],12
same,"No. of adverse events: All AEs, Treatment related",[2],3
same,No. of adverse events: Grade 2 AEs,[2],5
same,"No. of adverse events: Grade 2 AEs, Treatment related",[2],1
same,No. of adverse events: Grade 3 AEs,[2],0
same,No. of adverse events: SAEs,[2],0
same,No. (%) of subjects with adverse events: All AEs,[3],5 (83)
same,"No. (%) of subjects with adverse events: All AEs, Treatment related",[3],3 (50)
same,No. (%) of subjects with adverse events: Grade 2 AEs,[3],3 (50)
same,"No. (%) of subjects with adverse events: Grade 2 AEs, Treatment related",[3],1 (17)
same,No. (%) of subjects with adverse events: SAEs,[3],0
same,No. of adverse events: All AEs,[3],19
same,"No. of adverse events: All AEs, Treatment related",[3],3
same,No. of adverse events: Grade 2 AEs,[3],4
same,"No. of adverse events: Grade 2 AEs, Treatment related",[3],1
same,No. of adverse events: SAEs,[3],0
same,No. (%) of subjects with adverse events: Grade 3 AEs,[4],1 (17)^c
same,No. of adverse events: Grade 3 AEs,[4],1^c
same,No. (%) of subjects with adverse events: All AEs,[5],6 (100)
same,"No. (%) of subjects with adverse events: All AEs, Treatment related",[5],2 (33)
same,No. (%) of subjects with adverse events: Grade 2 AEs,[5],2 (33)
same,"No. (%) of subjects with adverse events: Grade 2 AEs, Treatment related",[5],1 (17)
same,No. (%) of subjects with adverse events: SAEs,[5],0
same,No. of adverse events: All AEs,[5],22
same,"No. of adverse events: All AEs, Treatment related",[5],2
same,No. of adverse events: Grade 2 AEs,[5],2
same,"No. of adverse events: Grade 2 AEs, Treatment related",[5],1
same,No. of adverse events: SAEs,[5],0
same,No. (%) of subjects with adverse events: Grade 3 AEs,[6],1 (17)^c
same,No. of adverse events: Grade 3 AEs,[6],1^c
same,No. (%) of subjects with adverse events: All AEs,[7],6 (100)
same,"No. (%) of subjects with adverse events: All AEs, Treatment related",[7],2 (33)
same,No. (%) of subjects with adverse events: Grade 2 AEs,[7],5 (83)
same,"No. (%) of subjects with adverse events: Grade 2 AEs, Treatment related",[7],0
same,No. (%) of subjects with adverse events: Grade 3 AEs,[7],0
same,No. (%) of subjects with adverse events: SAEs,[7],0
same,No. of adverse events: All AEs,[7],20
same,"No. of adverse events: All AEs, Treatment related",[7],3
same,No. of adverse events: Grade 2 AEs,[7],6
same,"No. of adverse events: Grade 2 AEs, Treatment related",[7],0
same,No. of adverse events: Grade 3 AEs,[7],0
same,No. of adverse events: SAEs,[7],0
same,No. (%) of subjects with adverse events: All AEs,[8],6 (100)
same,"No. (%) of subjects with adverse events: All AEs, Treatment related",[8],1 (17)
same,No. (%) of subjects with adverse events: Grade 2 AEs,[8],2 (33)
same,"No. (%) of subjects with adverse events: Grade 2 AEs, Treatment related",[8],1 (17)
same,No. (%) of subjects with adverse events: Grade 3 AEs,[8],0
same,No. of adverse events: All AEs,[8],11
same,"No. of adverse events: All AEs, Treatment related",[8],1
same,No. of adverse events: Grade 2 AEs,[8],3
same,"No. of adverse events: Grade 2 AEs, Treatment related",[8],1
same,No. of adverse events: Grade 3 AEs,[8],0
same,No. (%) of subjects with adverse events: SAEs,[9],1 (17)^e
same,No. of adverse events: SAEs,[9],1^e
same,"trends in inhibin B, FSH, LH, or testosterone levels","first-in-human study, across dose groups",No trends
same,adverse events considered potentially related to MMV390048,"first-in-human study, all MMV390048 cohorts",Twelve
same,"QT prolongation (QTcF, >450 ms)","first-in-human study, any subject",No QT prolongation
same,decrease in blood pressure (to),"first-in-human study, mild related AE, one subject",87/52
same,"diarrhea considered related to MMV390048, cases","first-in-human study, moderate severity, in 2 subjects",2
same,duration of moderate papular urticaria episode,"one subject, 20 mg",20 days
same,onset of moderate papular urticaria after dosing,"one subject, 20 mg",14 days
same,time for neutrophil count to return to >1.5 × 10^9 liter^−1,"one subject, 40 mg fasted",4 days
same,time for neutrophil count to return to >1.5 × 10^9 liter^−1,"one subject, 40 mg fed",13 days
same,"PR prolongation on ECG, maximum","one subject, 24 h after 20 mg, PR 200.3 ms on admission",285 ms
same,lowest observed neutrophil count,"one subject, fasted state (predose 1.65)",7.7e+08 L⁻¹
same,lowest observed neutrophil count,"one subject, fed state (predose 1.90)",9.7e+08 L⁻¹
same,tolerability,"single oral dose up to 120 mg, healthy volunteers",generally well tolerated
